# Measurements: patent publication US20100179344A1, “2-Alkylidene-18,19-Dinor-Vitamin D Compounds” (WISCONSIN ALUMNI RESEARCH FOUNDATION, priority 2004, published 2010)
# What was measured:
# HL-60 cells = experiment: HL-60 cell differentiation (NBT reduction); format: cell-based, human; details: FIG. 2; for percent of HL-60 cells induced to differentiate: NBT assay, concentration 1×10^−7M
# Procedure: The differentiation of HL-60 promyelocytic into monocytes was determined as described by Ostrem et al (J. Biol. Chem. 262, 14164-14171, 1987).
# The study drugs were dissolved in ethanol and the concentrations determined using UV spectrophotometry (2MD:molar extinction coefficient=42,000 and Imax=252 nm; 1,25(OH)2D3:molar extinction=18,200 and Imax=265 nm). Serial dilutions were prepared so that a range of drug concentrations could be tested without changing the final concentration of ethanol (<0.2%) present in the cell cultures.
# Human promyelocytic leukemia (HL60) cells were grown in RPMI-1640 medium containing 10% fetal bovine serum. The cells were incubated at 37° C. in the presence of 5% CO2.
# HL60 cells were plated at 1.2×10^5 cells/ml. Eighteen hours after plating, the cells were administered the drug in ethanol. Four days post-dose, the cells were harvested and a nitro blue tetrazolium reduction assay was performed (Collins et al., 1979; J. Exp. Med. 149:969-974, Appendix A). The percentage of differentiated cells was determined by counting a total of 200 cells and recording the number that contained intracellular black-blue formazan deposits. Verification of differentiation to monocytic cells was determined by measuring phagocytic activity (data not shown). All drug concentrations were tested in duplicate.
# This is illustrated by the biological assay results obtained for (20S)-2-methylene-18,19-dinor-1α,25-dihydroxy-vitamin D3 which is summarized in FIGS. 2 through 6. […] Differentiation activity was assessed by a standard differentiation assay, abbreviated as NBT reduction (nitroblue tetrazolium reduction). The assay was conducted according to known procedures, as given, for example, by DeLuca et al U.S. Pat. No. 4,717,721 and Ostrem et al, J. Biol. Chem. 262, 14164, 1987. For the assay, the differentiation activity of the test compounds is expressed in terms of the percent of HL-60 cells having differentiated to normal cells in response to a given concentration of test compound.
# [1] = Bone calcium mobilization (serum calcium); format: in vivo, rat; details: male Sprague-Dawley rats, low calcium diet, four intraperitoneal doses; FIGS. 5 and 6
# Text: (§1) Weanling, male Sprague-Dawley rats were purchased from Harlan. Upon receipt, the animals were identified by individual tail marks and fed a calcium containing (0.47%) diet (Suda et al., Purified Rodent Diet-Diet 11; Appendix A) for one week before switching to the same diet devoid of calcium (0.02%). Water and a purified rodent diet (Diet 11; Appendix A) containing either 0.47% or 0.02% calcium and 0.3% phosphorus were provided ad libitum. Animals were fed the purified diet containing 0.47% calcium for the first week and then the 0.02% calcium containing diet for the next three weeks of the study. The rats were then fed 0.47% calcium containing diet for one week before switching back to 0.02% calcium containing diet for the remainder of the study. During the second week back on 0.02% calcium containing diet, the animals were tail-bled (baseline serum calcium) and then dose administration was initiated. All doses were administered intraperitoneally in 100 microliters of propylene glycol. Four consecutive doses were given approximately 24 hours apart. Twenty-four hours after the last dose, blood was collected from the tail artery of each experimental animal. […] The level of calcium was determined by diluting the serum into 0.1% lanthum chloride and measuring the absorbance on an atomic absorption spectrophotometer (Perkin Elmer Model 3110, Shelton, Conn.).
# [2] = Intestinal calcium transport (everted gut sac); format: in vivo, rat; details: male Sprague-Dawley rats, low calcium diet, four intraperitoneal doses; FIG. 4
# Text: as §1, with “diet,” for “diet, the animals were tail-bled (baseline serum calcium) and then”, “began.” for “was initiated.”, “apart.” for “apart. Twenty-four hours after the last dose, blood was collected from the tail artery of each experimental animal.”, “Conn.). Twenty-four hours after the last dose, intestinal calcium transport was assessed ex vivo using the everted gut sac technique.” for “Conn.).”
# [3] = target: T1, 1α,25-dihydroxyvitamin D pig intestinal nuclear receptor (Rattus norvegicus, UniProt P13053); experiment: Competitive VDR binding; details: competition with 3H-1,25(OH)2D3; FIG. 1
# T1 construct: Full-length recombinant rat receptor was expressed in E. coli; His tag (C); made in house; host or cells: E. coli BL21 (DE3) Codon Plus RIL
# T1 sequence (P13053 1-423): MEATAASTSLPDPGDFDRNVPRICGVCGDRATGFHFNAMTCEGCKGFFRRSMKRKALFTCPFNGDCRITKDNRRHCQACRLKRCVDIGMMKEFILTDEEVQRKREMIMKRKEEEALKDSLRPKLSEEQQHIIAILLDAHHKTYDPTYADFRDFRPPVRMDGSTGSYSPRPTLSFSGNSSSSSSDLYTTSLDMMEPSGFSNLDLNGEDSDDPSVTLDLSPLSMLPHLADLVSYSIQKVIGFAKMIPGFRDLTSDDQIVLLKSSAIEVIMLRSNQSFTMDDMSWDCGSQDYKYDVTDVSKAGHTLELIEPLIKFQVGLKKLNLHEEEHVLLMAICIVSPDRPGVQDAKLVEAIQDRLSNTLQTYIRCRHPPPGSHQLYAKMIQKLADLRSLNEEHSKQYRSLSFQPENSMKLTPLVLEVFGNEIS
# Procedure: Competitive binding of the analogs to the porcine intestinal receptor was carried out by the method described by Dame et al (Biochemistry 25, 4523-4534, 1986).
# Full-length recombinant rat receptor was expressed in E. coli BL21 (DE3) Codon Plus RIL cells and purified using two different column chromatography systems. The first system was a nickel affinity resin that utilized the C-terminal histidine tag on this protein. The protein that was eluted from this resin was further purified using ion exchange chromatography (S-Sepharose Fast Flow). Aliquots of the purified protein were quick frozen in liquid nitrogen and stored at −80° C. until use. […]
# Unlabeled ligands were dissolved in ethanol and the concentrations determined using UV spectrophotometry. […]
# Radiolabeled and unlabeled ligands were added to 100 mcl of the diluted protein, mixed and incubated overnight on ice to reach binding equilibrium. […] Total binding was determined from the tubes containing only radiolabeled ligand. The percentage of competition was calculated by subtracting the number of dpm remaining in the hydroxylapatite pellet from the total number of dpm bound, dividing by the total number of dpm bound and multiplying by one hundred. Duplicate tubes were prepared and analyzed for each test concentration.
# [4] = test system: 24-hydroxylase (24OHase) gene promoter in ROS 17/2.8 (bone) cells; experiment: Transcription activation, 24-hydroxylase promoter luciferase reporter; format: cell-based; details: luciferase 16 h after dosing, FIG. 3
# Procedure: Transcriptional activity was measured in ROS 17/2.8 (bone) cells that were stably transfected with a 24-hydroxylase (24OHase) gene promoter upstream of a luciferase reporter gene (Arbour et al., 1998). Cells were given a range of doses. Sixteen hours after dosing the cells were harvested and luciferase activities were measured using a luminometer.
# “RLU” in FIG. 3 refers to relative luciferase units.
"activity in binding to the 1α,25-dihydroxyvitamin D3 receptor [3]",Structure (SMILES),percent of HL-60 cells induced to differentiate (HL-60 cells),"ability to mobilize calcium from bone compared with 1α,25-dihydroxyvitamin D3 [1]","potency in promoting differentiation of leukemia cells compared with 1α,25-dihydroxyvitamin D3 (HL-60 cells; HL-60 cells)","intestinal calcium transport activity compared with 1α,25-dihydroxyvitamin D3 [2]","transcriptional activity compared with 1α,25-dihydroxyvitamin D3 [4]"
,"C=C1/C(=C\C=C2/CCC[C@]3(C)[C@@H]([C@H](C)CCCC(C)(C)O)CC[C@@H]23)C[C@@H](O)C[C@@H]1O [C001, 1α,25-dihydroxyvitamin D3, reference compound]",~90%,,,,
very active,"C=C1[C@H](O)CC(=C/C=C2\CCC[C@@H]3C([C@@H](C)CCCC(C)(C)O)CC[C@@H]23)C[C@H]1O (stereo partly drawn) [DP035, (20S)-2-methylene-18,19-dinor-1α,25-dihydroxyvitamin D3]",the same degree of differentiation,clearly not as active,more potent,as active as,higher transcriptional activity
